Assays:
AML bone marrow cells = assay: Methylcellulose culture of AML bone marrow cells with peptides: proliferation (colonies) and differentiation (morphology); format: cell-based, human; details: for Activation of Proliferation GM-CSF / Cell Differentiation GM-CSF: with GM-CSF; for Activation of Proliferation (Patient No.) +GM-CSE: peptide with GM-CSF; for induction of differentiation of the patient cells (FIG. 8): AML bone marrow cells, 14 days methylcellulose; for Activation of Differentiation: patient numbers
Procedure: The effect of various peptides were analyzed for their biological activity on cells from a patient with acute myelogenous leukemia. The AML cells were cultured into a semi-solid medium of methylcellulose in order to determine the cloning efficiency and the differentiation of the cells. The various peptides were introduced into the semi-solid cell culture at a concentration of 10^−4 M (0.1 mM) peptide. After 14 days continuous incubation of the cell cultures, the morphology of the cells were analyzed. The data are shown in FIG. 7 for the cultures and show the percentage of immature cells in the culture (solid black), the percentage of small myeloblasts (solid white), the percentage of young cells (dark gray), and the relative percentage of monocytes to […] (light gray). The data regarding the biological response of AML bone marrow cells in the presence of the various peptides is shown in the table below.

[1] = system: human bone marrow AML cells; assay: Effect of phage-peptides on differentiation, cell number and viability of freshly obtained AML patient bone marrow cells cultured seven days; format: cell-based; details: for Number of Cells / Percent Differentiation / Viability: phage-peptides; for Percent differentiated in Specimen 1 / Percent differentiated in Specimen 2: peptides in bacteriophage, AML cells cultured seven days in vitro
Excerpt: The effect of various phage-peptides were studied on the differentiation of cells from two AML patients.

[2] = fraction, not explained, peptide alone
[3] = numbers of the AML patients whose cells responded

Substance | Activation of Proliferation (AML bone marrow cells; [2]) | Cell Differentiation (AML bone marrow cells; [2]) | Activation of Proliferation GM-CSF (AML bone marrow cells; fraction, not explained) | Cell Differentiation GM-CSF (AML bone marrow cells; fraction, not explained) | Inhibition of Proliferation (AML bone marrow cells; [2]) | also measured
CDEKRGPNEC [B4 C10] | 1/6 | 2/4 | 1/2 | 0/2 | – | Activation of Proliferation (Patient No.) (AML bone marrow cells; numbers of the AML patients whose cells responded, peptide alone, 10^−4 M, 14 days): 9; Activation of Proliferation (Patient No.) +GM-CSE (AML bone marrow cells; [3]): 11
CIEETAAKGC [Peptide A2A, A2 with R replaced by A] | 4/11 | 3/8 | 2/4 | 1/4 | 1/11 | activity on cell differentiation (FIG. 9, another example) (AML bone marrow cells; in words): have a biological activity; activity on cell differentiation compared with the peptide with cysteine residues (FIG. 8) (AML bone marrow cells; in words): higher activity; induction of differentiation of the patient cells (FIG. 8) (AML bone marrow cells; in words): able to induce the differentiation; Inhibition of Proliferation (AML bone marrow cells; numbers of the AML patients whose cells responded, peptide alone): 10; Activation of Differentiation (AML bone marrow cells): 3
CNELHMKQHC [G7 12-8B] | 2/6 | 4/5 | 0/2 | 0/2 | – | –
CNHVCSRLGC [B6 12-8B] | 5/14 | 3/13 | 3/5 | 2/5 | 3/14 | –
CNNATFEDGC [G2 12-8A] | 6/14 | 2/12 | 2/5 | 2/5 | 1/14 | –
CNNATVEDEC [C8 12-8B] | 2/8 | 1/8 | 1/2 | 1/2 | – | –
EFQQWSGK [G5 12-8B no Cys] | – | – | – | – | – | Activation of Differentiation (AML bone marrow cells): 3
IEETARKG [A2 11-24 no Cys] | 4/14 | 4/13 | 1/2 | 2/2 | – | activity on cell differentiation compared with the peptide with cysteine residues (FIG. 8) (AML bone marrow cells; in words): higher activity; induction of differentiation of the patient cells (FIG. 8) (AML bone marrow cells; in words): able to induce the differentiation; Activation of Proliferation (Patient No.) +GM-CSE (AML bone marrow cells; [3]): 11
NNATFEDG [G2 12-8A] | – | – | – | – | – | Number of Cells ([1]; Patient 1): 0.93 106; Percent Differentiation ([1]; Patient 1): 27.5%; Number of Cells ([1]; Patient 2): 0.31 106; Percent Differentiation ([1]; Patient 2): 52%; Percent differentiated in Specimen 1 [1]: 28%; Percent differentiated in Specimen 2 [1]: 51%
granulocyte-macrophage colony-stimulating factor [GM-CSF] | – | – | – | – | – | Number of Cells ([1]; Patient 1): 1.57 106; Percent Differentiation ([1]; Patient 1): 21%; Viability ([1]; Patient 1): 80%; Number of Cells ([1]; Patient 2): 0.87 106; Percent Differentiation ([1]; Patient 2): 16.5%; Viability ([1]; Patient 2): 89%; Percent differentiated in Specimen 1 [1]: 21%; Percent differentiated in Specimen 2 [1]: 17%

From US20030134342A1, “Binding-specific peptides, binding-specific carrier molecules, and uses thereof” (priority 2001, published 2003)
